{
  "source": "PubChem BioAssay (NCI)",
  "note": "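48-hour exposure; five concentrations; linearly interpolated endpoints. GI50 = concentration required for 50% inhibition of growth. TGI is the concentration that stops growth completely.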",
  "data": [
    {"tested_on": "CAKI-1 renal", "assay": "DTP human tumour cell line panel, 48 h", "units": {"GI50": "µM", "TGI": "µM"}, "values": [
      {"compound": "CN1CCc2c(Sc3ccc(C(=O)NO)cc3)c3ccccc3n2C1", "GI50": 3.95, "TGI": 14.5},
      {"compound": "CN(C)c1ccc2nc3ccc(=O)cc-3sc2c1", "GI50": 2.24, "TGI": "> 90.7"},
      {"compound": "CC(=O)c1c(CBr)n([O-])c2ccccc2[n+]1=O", "GI50": 12.9, "TGI": 25.8},
      {"compound": "COc1ccc(C(=O)C(CO)Oc2ccccc2OC)cc1OC", "note": "(configuration not stated)", "TGI": "> 100"},
      {"compound": "CN=NN(C)C(=O)NC", "TGI": "> 100"},
      {"compound": "c1ccc2c3ccn4cc5c(cc4c-3nc2c1)CCCC5", "GI50": 34.9, "TGI": "> 100"},
      {"compound": "N#CC1Nc2ccccc2[C@@H](O)C1O", "note": "(some centres not stated)", "TGI": "> 100"},
      {"compound": "CC(C)c1ccccc1S(=O)c1ccccc1C(C)(C)O", "note": "(configuration not stated)", "TGI": "> 100"},
      {"compound": "Cc1c(C2Nc3ccccc3C2C)[nH]c2ccccc12", "note": "(configuration not stated)", "GI50": 2.45, "TGI": 22.8},
      {"compound": "CCOC(=O)CCc1c(C)c2c(OC(C)=O)cc(OC(C)=O)cc2oc1=O", "TGI": "> 100"},
      {"compound": "COc1cc(NC(C)CCCN)c2nccc(C)c2c1OC", "note": "(configuration not stated)", "GI50": 19, "TGI": 40.8},
      {"compound": "O=C(CN1CCCCC1)N1CCc2c([nH]c3ccccc23)C1c1cccnc1", "note": "(configuration not stated)", "TGI": "> 100"},
      {"compound": "COc1cc2cn3c4ccc(O)cc4[nH]c(=O)c3c2cc1OC", "GI50": 0.0158, "TGI": 1.3},
      {"compound": "O=C(O)c1cccc(OCCO)c1", "TGI": "> 100"},
      {"compound": "COc1ccc(C2C(C#N)=C(N)OC3=C2COc2ccc(F)cc23)cc1OC", "note": "(configuration not stated)", "GI50": 16.5, "TGI": 47.3},
      {"compound": "Cc1cc(C)n(CCNCCn2nc(C)cc2C)n1", "TGI": "> 100"},
      {"compound": "O=C1CSC(Cc2nc3ccccc3[nH]2)=N1", "TGI": 31.4},
      {"compound": "O=C(Nc1cccc(Cl)c1Cl)c1cccc(NC2=C(Cl)C(=O)N(Cc3ccccc3)C2=O)c1", "GI50": 33.2, "TGI": "> 100"},
      {"compound": "O=C(/C=C/c1ccccc1)/C=C/c1ccccc1", "TGI": "> 100"},
      {"compound": "N#CC(C#N)=c1[nH]c2cccc3c2-c2c(cccc2c3=C(C#N)C#N)[nH]1", "TGI": "> 100"}
    ]},
    {"tested_on": "EKVX NSCLC", "assay": "DTP human tumour cell line panel, 48 h", "units": {"TGI": "µM", "GI50": "µM"}, "values": [
      {"compound": "N#CC1(C2SCCS2=O)C2=C(C(=O)c3ccccc3C2=O)N2CCCC21", "note": "(configuration not stated)", "TGI": 13.9},
      {"compound": "O=S(O)CCCCSSCc1ccccc1CSSCCCCS(=O)O", "TGI": "> 100"},
      {"compound": "Cc1n(Cc2ccc3ccccc3c2)cc[n+]1Cc1ccc2ccccc2c1", "GI50": 2.32, "TGI": 17.1},
      {"compound": "O=C(O)Cc1c(O)ccc2ccccc12", "TGI": "> 100"},
      {"compound": "CSC1(CC(=O)N(C)C)C(=O)Nc2ccccc21", "note": "(configuration not stated)", "TGI": "> 100"},
      {"compound": "COc1cc(/C=C2\\C(=O)Nc3ccc(F)cc32)cc(OC)c1OC", "GI50": 33.1, "TGI": "> 100"},
      {"compound": "C#C[C@]1(O)CC[C@H]2[C@@H]3CC=C4c5sc(Nc6ccccc6)nc5CC[C@]4(C)[C@H]3CC[C@@]21C", "GI50": 2.83, "TGI": 13.8},
      {"compound": "O=C(O)c1c(-c2nccc3ccccc23)[nH]c(-c2ccccc2)c1S(=O)(=O)O", "TGI": "> 100"},
      {"compound": "Cc1cn2c(/C=C3/C(=O)Nc4ccccc43)c(-c3ccc(Cl)cc3)nc2s1", "GI50": 8.73, "TGI": 18.8},
      {"compound": "O=C(CCC/C(CC(=O)c1ccc(Br)cc1)=N\\O)Nc1ccccc1", "TGI": "> 100"},
      {"compound": "Cc1c[n+](Cc2ccc3ccccc3c2)cn1Cc1ccc2ccccc2c1", "GI50": 2.15, "TGI": 9.71},
      {"compound": "COc1ccccc1NC(=O)C1=C(C)NC(C)=C(C(=O)Nc2ccccc2OC)C1c1ccc([N+](=O)[O-])cc1", "TGI": "> 100"},
      {"compound": "O=C(CSc1nnc(-c2ccccc2NC(=O)C(F)(F)F)c(=O)[nH]1)NC(=O)Nc1ccccc1", "TGI": "> 100"},
      {"compound": "CC(=O)c1c(CBr)n([O-])c2ccccc2[n+]1=O", "GI50": 13.2, "TGI": 30.3},
      {"compound": "C#CC(=O)Nc1cccc(Nc2nc3c(c(NCc4ccccc4)n2)CCCC3)c1", "GI50": 0.34, "TGI": 1.99},
      {"compound": "COc1ccc(C(=O)C(CO)Oc2ccccc2OC)cc1OC", "note": "(configuration not stated)", "TGI": "> 100"},
      {"compound": "CC(C)(C)C(=O)/C=C/c1ccc(Oc2ccccc2)cc1", "TGI": 39.1},
      {"compound": "c1ccc2c3ccn4cc5c(cc4c-3nc2c1)CCCC5", "GI50": 3.88, "TGI": 19.5},
      {"compound": "N#CC1Nc2ccccc2[C@@H](O)C1O", "note": "(some centres not stated)", "TGI": "> 100"},
      {"compound": "CC(C)c1ccccc1S(=O)c1ccccc1C(C)(C)O", "note": "(configuration not stated)", "TGI": "> 100"},
      {"compound": "CCOC(=O)CCc1c(C)c2c(OC(C)=O)cc(OC(C)=O)cc2oc1=O", "TGI": "> 100"},
      {"compound": "COc1cc(NC(C)CCCN)c2nccc(C)c2c1OC", "note": "(configuration not stated)", "GI50": 18, "TGI": 33.8},
      {"compound": "O=C(CN1CCCCC1)N1CCc2c([nH]c3ccccc23)C1c1cccnc1", "note": "(configuration not stated)", "TGI": "> 100"},
      {"compound": "COc1cc2cn3c4ccc(O)cc4[nH]c(=O)c3c2cc1OC", "GI50": 0.0607, "TGI": 2},
      {"compound": "O=C(O)c1cccc(OCCO)c1", "TGI": "> 100"},
      {"compound": "COc1ccc(C2C(C#N)=C(N)OC3=C2COc2ccc(F)cc23)cc1OC", "note": "(configuration not stated)", "GI50": 17.8, "TGI": "> 100"},
      {"compound": "Cc1cc(C)n(CCNCCn2nc(C)cc2C)n1", "TGI": "> 100"},
      {"compound": "O=C1CSC(Cc2nc3ccccc3[nH]2)=N1", "TGI": 75.6},
      {"compound": "O=C(Nc1cccc(Cl)c1Cl)c1cccc(NC2=C(Cl)C(=O)N(Cc3ccccc3)C2=O)c1", "GI50": 34.2, "TGI": 89.2},
      {"compound": "N#CC(C#N)=c1[nH]c2cccc3c2-c2c(cccc2c3=C(C#N)C#N)[nH]1", "TGI": "> 100"}
    ]},
    {"tested_on": "HCC-2998 colon", "assay": "DTP human tumour cell line panel, 48 h", "units": {"TGI": "µM", "GI50": "µM"}, "values": [
      {"compound": "N#CC1(C2SCCS2=O)C2=C(C(=O)c3ccccc3C2=O)N2CCCC21", "note": "(configuration not stated)", "TGI": 11.8},
      {"compound": "CC(=O)Oc1ccccc1C(=O)N=C1[Se]CCN1C(=O)c1ccccc1OC(C)=O", "GI50": 2.15, "TGI": 5.79},
      {"compound": "O=S(O)CCCCSSCc1ccccc1CSSCCCCS(=O)O", "TGI": "> 100"},
      {"compound": "Cc1n(Cc2ccc3ccccc3c2)cc[n+]1Cc1ccc2ccccc2c1", "GI50": 0.717, "TGI": 2.27},
      {"compound": "CSC1(CC(=O)N(C)C)C(=O)Nc2ccccc21", "note": "(configuration not stated)", "TGI": "> 100"},
      {"compound": "C#C[C@]1(O)CC[C@H]2[C@@H]3CC=C4c5sc(Nc6ccccc6)nc5CC[C@]4(C)[C@H]3CC[C@@]21C", "GI50": 1.91, "TGI": 4.22},
      {"compound": "O=C(CCC/C(CC(=O)c1ccc(Br)cc1)=N\\O)Nc1ccccc1", "TGI": "> 100"},
      {"compound": "Cc1c[n+](Cc2ccc3ccccc3c2)cn1Cc1ccc2ccccc2c1", "GI50": 1.34, "TGI": 2.83},
      {"compound": "O=C(CSc1nnc(-c2ccccc2NC(=O)C(F)(F)F)c(=O)[nH]1)NC(=O)Nc1ccccc1", "TGI": "> 100"},
      {"compound": "CN1CCc2c(Sc3ccc(C(=O)NO)cc3)c3ccccc3n2C1", "GI50": 1.77, "TGI": 3.86},
      {"compound": "CN(C)c1ccc2nc3ccc(=O)cc-3sc2c1", "GI50": 0.697, "TGI": "> 100"},
      {"compound": "CC(=O)c1c(CBr)n([O-])c2ccccc2[n+]1=O", "GI50": 17.6, "TGI": 34.5},
      {"compound": "C#CC(=O)Nc1cccc(Nc2nc3c(c(NCc4ccccc4)n2)CCCC3)c1", "GI50": 1.36, "TGI": 2.9},
      {"compound": "COc1ccc(C(=O)C(CO)Oc2ccccc2OC)cc1OC", "note": "(configuration not stated)", "TGI": "> 100"},
      {"compound": "CC(C)(C)C(=O)/C=C/c1ccc(Oc2ccccc2)cc1", "TGI": "> 100"},
      {"compound": "CN=NN(C)C(=O)NC", "TGI": "> 100"},
      {"compound": "c1ccc2c3ccn4cc5c(cc4c-3nc2c1)CCCC5", "GI50": 4.3, "TGI": 15},
      {"compound": "N#CC1Nc2ccccc2[C@@H](O)C1O", "note": "(some centres not stated)", "TGI": "> 100"},
      {"compound": "Cc1c(C2Nc3ccccc3C2C)[nH]c2ccccc12", "note": "(configuration not stated)", "GI50": 12.6, "TGI": 26.6},
      {"compound": "CCOC(=O)CCc1c(C)c2c(OC(C)=O)cc(OC(C)=O)cc2oc1=O", "TGI": "> 100"},
      {"compound": "COc1cc(NC(C)CCCN)c2nccc(C)c2c1OC", "note": "(configuration not stated)", "GI50": 4.85, "TGI": 17.8},
      {"compound": "O=C(CN1CCCCC1)N1CCc2c([nH]c3ccccc23)C1c1cccnc1", "note": "(configuration not stated)", "TGI": "> 100"},
      {"compound": "COc1cc2cn3c4ccc(O)cc4[nH]c(=O)c3c2cc1OC", "GI50": 0.0307, "TGI": 1.61},
      {"compound": "Cc1cc(C)n(CCNCCn2nc(C)cc2C)n1", "TGI": "> 100"},
      {"compound": "O=C1CSC(Cc2nc3ccccc3[nH]2)=N1", "TGI": 36.3},
      {"compound": "O=C(/C=C/c1ccccc1)/C=C/c1ccccc1", "TGI": "> 100"},
      {"compound": "CCOC(=O)C1=C(C)N(N)C(=S)NC1c1ccc(C)cc1", "note": "(configuration not stated)", "GI50": 0.811, "TGI": 27.1},
      {"compound": "N#CC(C#N)=c1[nH]c2cccc3c2-c2c(cccc2c3=C(C#N)C#N)[nH]1", "TGI": "> 100"}
    ]},
    {"tested_on": "IGROV1 ovarian", "assay": "DTP human tumour cell line panel, 48 h", "units": {"TGI": "µM", "GI50": "µM"}, "values": [
      {"compound": "N#CC1(C2SCCS2=O)C2=C(C(=O)c3ccccc3C2=O)N2CCCC21", "note": "(configuration not stated)", "TGI": 5.76},
      {"compound": "O=S(O)CCCCSSCc1ccccc1CSSCCCCS(=O)O", "TGI": "> 100"},
      {"compound": "Cc1n(Cc2ccc3ccccc3c2)cc[n+]1Cc1ccc2ccccc2c1", "GI50": 0.797, "TGI": 2.87},
      {"compound": "O=C(O)Cc1c(O)ccc2ccccc12", "TGI": "> 100"}
    ]}
  ]
}
